# Patent EP0033503A2, “Medicaments with cytostatic activity and use of cyclic compounds, in which the heterocyclic N-ring atoms are substituted by several glycidyl groups, in pharmaceutical compositions” (Henkel Kommanditgesellschaft auf Aktien, priority 1980, dated 1981)
# Like-named read-outs stand apart in the source and are kept apart here.
# System: Tumorart P 388 (Leukämie)
# Experiment: Survival of mice bearing P 388 leukemia (NCI protocol 1200), T/C
# Type: in vivo, Maus
# Conditions: for Testergebnis in % T/C: repeat experiment; for response vs control in vivo at 50 mg/kg / response vs control in vivo at 100 mg/kg / response vs control in vivo at 200 mg/kg / response vs control in vivo at 25 mg/kg: Mus musculus; for Verlängerungsrate T/C: 9 injections; for T/C-Wert: unit not given
# From the text: Die nachfolgenden Versuche wurden durchgeführt nach Testvorschriften des National Cancer Institute Bethesda, Maryland 200014, veröffentlicht in Cancer Chemotherapy Reports" Part. 3, September 1972, Vol. 3, Nr. 2. Als Wirksubstanz wurde 1,3-Diglycidyl-benzimidazolon des i vorstehenden Beispiels 1 verwendet. Die Substanz wurde als wäßrige, 1%ige Injektionslösung unmittelbar vor der Applikation frisch hergestellt.
# Bei Mäusen wurde gemäß Protokoll 1200 (Seite 91, c.) die Tumorart P 388 (Leukämie) i.p. mit 10^6 Zellen/Maus gesetzt. Die unbehandelten Tiere hatten eine mittlere überlebensdauer von 9,9 Tagen.
# Es wird der Wirkstoff appliziert. Der Wirkstoff wird dabei in 9.Gaben in unterschiedlichen Versuchsreihen einmal zu je 200 mg/kg und in einer anderen zu 100 mg/kg und in einer dritten Versuchsreihe zu je 50 mg/kg verabreicht. In beiden Fällen wird eine signifikante Verlängerung der Lebensdauer der behandelten Testtiere gegenüber der Kontrollgruppe der nicht behandelten Tiere erzielt. […] Bei der Testgruppe mit der Dosis von 100 mg/kg beträgt die durchschnittliche Lebenserwartung der Versuchstiere 18 Tage, T/C 181 %. Die Gruppe mit der Dosis 50 mg/kg hatte eine durchschnittliche Lebenserwartung von 15,3 Tagen, T/C 154 %. […]
# [1] = 50 mg/kg per single dose, 9 doses
# [2] = 100 mg/kg per single dose, 9 doses
# [3] = P388, 50 mg/kg per single dose, 9 doses, first test series, read-out: Verlängerungsrate T/C (Testergebnis in % T/C)
# [4] = P388, 100 mg/kg per single dose, 9 doses, first test series, read-out: Verlängerungsrate T/C (Testergebnis in % T/C)
# [5] = 200 mg/kg per single dose, 9 doses
# [6] = P388, 200 mg/kg per single dose, 9 doses, first test series, read-out: Verlängerungsrate T/C (Testergebnis in % T/C)
# [7] = P388, read-out: Testergebnis T/C (T/C-Wert), 25 mg/kg, second series, unit inferred
# [8] = P388, read-out: Testergebnis T/C (T/C-Wert), 50 mg/kg per single dose, first series, unit inferred
# [9] = P388, read-out: Testergebnis T/C (T/C-Wert), 50 mg/kg, second series, unit inferred
# [10] = P388, read-out: Testergebnis T/C (T/C-Wert), 100 mg/kg per single dose, first series, unit inferred
# [11] = P388, read-out: Testergebnis T/C (T/C-Wert), 100 mg/kg, second series, unit inferred
# [12] = P388, read-out: Testergebnis T/C (T/C-Wert), 200 mg/kg, second series, unit inferred
# [13] = P388, read-out: Verlängerungsrate T/C (Testergebnis in % T/C), 50 mg/kg per single dose, 9 doses, first test series
# [14] = P388, read-out: Verlängerungsrate T/C (Testergebnis in % T/C), 100 mg/kg per single dose, 9 doses, first test series
# [15] = P388, read-out: Testergebnis T/C (T/C-Wert), 200 mg/kg per single dose, first series, unit inferred
# [16] = P388, 50 mg/kg per single dose, first series, unit inferred, read-out: Testergebnis T/C (T/C-Wert)
# [17] = P388, 100 mg/kg per single dose, first series, unit inferred, read-out: Testergebnis T/C (T/C-Wert)
# [18] = P388, 200 mg/kg per single dose, first series, unit inferred, read-out: Testergebnis T/C (T/C-Wert)
smiles,measurement,setting,value
"CC1(C)C(=O)N(CC2CO2)C(=O)N1CC1CO1 (centres unmarked) [1,3-Diglycidyl-5,5-dimethylhydantoin]",Testergebnis in % T/C,25 mg/kg,136%
same,durchschnittliche Lebenserwartung der Versuchstiere,[1],"15,7 Tage"
same,Testergebnis in % T/C,50 mg/kg,151%
same,durchschnittliche Lebenserwartung der Versuchstiere,[2],22 Tage
same,Testergebnis in % T/C,100 mg/kg,239%
same,response vs control in vivo at 50 mg/kg,[3],158%
same,response vs control in vivo at 100 mg/kg,[4],222%
same,erhöhte Lebenserwartung gegenüber einer Kontrollgruppe nicht behandelter Versuchstiere,animal test at 100 mg/kg and 50 mg/kg,≤ 220%
"O=c1n(CC2CO2)c2ccccc2n1CC1CO1 (centres unmarked) [Beispiel 1, N,N'-Digylcidyl-Benzimidazolon]",Testergebnis in % T/C,25 mg/kg,133%
same,durchschnittliche Lebenserwartung der Versuchstiere,[1],"15,3 Tage"
same,Testergebnis in % T/C,50 mg/kg,136%
same,durchschnittliche Lebenserwartung der Versuchstiere,[2],18 Tage
same,Testergebnis in % T/C,100 mg/kg,161%
same,durchschnittliche Lebensdauer der Testgruppe,[5],20 Tage
same,Testergebnis in % T/C,200 mg/kg,166%
same,response vs control in vivo at 50 mg/kg,[3],154%
same,response vs control in vivo at 100 mg/kg,[4],181%
same,response vs control in vivo at 200 mg/kg,[6],202%
"CN1C(=O)N(CC2CO2)C2C1N(CC1CO1)C(=O)N2C (centres unmarked) [Beispiel 5, 3,6 Diglycidyl-1,4-dimethylglykoluril]",Verlängerungsrate T/C (Testergebnis in % T/C),"50 mg/kg per single dose, 9 doses, first test series",134%
same,durchschnittliche Lebenserwartung der Versuchstiere,[2],"15,8 Tage"
same,Verlängerungsrate T/C (Testergebnis in % T/C),"100 mg/kg per single dose, 9 doses, first test series",157%
same,Verlängerungsrate T/C (Testergebnis in % T/C),"200 mg/kg per single dose, 9 doses, first test series",190%
"CCC1(CC)C(=O)N(CC2CO2)C(=O)N(CC2CO2)C1=O (centres unmarked) [Beispiel 10, 1,3-Diglycidyl-5,5-diethylbarbitursäure]",durchschnittliche Lebenserwartung der Versuchstiere,[1],"15,3 Tage"
same,durchschnittliche Lebenserwartung der Versuchstiere,[2],22 Tage
same,response vs control in vivo at 25 mg/kg,[7],94%
same,response vs control in vivo at 50 mg/kg,[8],147%
same,response vs control in vivo at 50 mg/kg,[9],111%
same,response vs control in vivo at 100 mg/kg,[10],211%
same,response vs control in vivo at 100 mg/kg,[11],158%
same,response vs control in vivo at 200 mg/kg,[12],230%
same,response vs control in vivo at 50 mg/kg,[13],147%
same,response vs control in vivo at 100 mg/kg,[14],211%
"CC(C)CC1C(=O)N(CC2CO2)C(=O)N(CC2CO2)C1=O (centres unmarked) [Beispiel 11, 1,3-Diglycidyl-5-isobutylbarbitursäure]",response vs control in vivo at 25 mg/kg,[7],129%
same,response vs control in vivo at 50 mg/kg,[8],133%
same,response vs control in vivo at 50 mg/kg,[9],158%
same,response vs control in vivo at 100 mg/kg,[10],158%
same,response vs control in vivo at 100 mg/kg,[11],184%
same,response vs control in vivo at 200 mg/kg,[15],194%
same,response vs control in vivo at 200 mg/kg,[12],252%
"O=c1ccn(CC2CO2)c(=O)n1CC1CO1 (centres unmarked) [Beispiel 13, N,N'-Diglycidyluracil]",durchschnittliche Lebenserwartung der Versuchstiere,[2],"16,0 Tage"
same,Testergebnis in % T/C,100 mg/kg,152%
same,durchschnittliche Lebensdauer der Testgruppe,[5],24 Tage
same,Testergebnis in % T/C,200 mg/kg,198%
same,response vs control in vivo at 25 mg/kg,"P388, 25 mg/kg, second series, unit inferred, read-out: Testergebnis T/C (T/C-Wert)",114%
same,response vs control in vivo at 50 mg/kg,[16],131%
same,response vs control in vivo at 50 mg/kg,"P388, 50 mg/kg, second series, unit inferred, read-out: Testergebnis T/C (T/C-Wert)",124%
same,response vs control in vivo at 100 mg/kg,[4],153%
same,response vs control in vivo at 100 mg/kg,[17],156%
same,response vs control in vivo at 100 mg/kg,"P388, 100 mg/kg, second series, unit inferred, read-out: Testergebnis T/C (T/C-Wert)",152%
same,response vs control in vivo at 200 mg/kg,[6],230%
same,response vs control in vivo at 200 mg/kg,[18],230%
same,response vs control in vivo at 200 mg/kg,"P388, 200 mg/kg, second series, unit inferred, read-out: Testergebnis T/C (T/C-Wert)",198%
"O=c1c2cc3c(=O)n(CC4CO4)c(=O)c3cc2c(=O)n1CC1CO1 (centres unmarked) [Beispiel 16, N,N^I-Diglycidylbenzoltetracarbonsäure-(1,2,4,5,)diimid]",Verlängerungsrate T/C,"6,25 mg/kg per single dose",156%
same,Verlängerungsrate T/C,"12,5 mg/kg per single dose",200%
"O=C1N(CC2CO2)CCN1CC1CO1 (centres unmarked) [Beispiel 18 a), Diglycidylethylenharnstcff]",response vs control in vivo at 25 mg/kg,[7],119%
same,response vs control in vivo at 50 mg/kg,[8],130%
same,response vs control in vivo at 50 mg/kg,[9],142%
same,response vs control in vivo at 100 mg/kg,[10],155%
same,response vs control in vivo at 100 mg/kg,[11],158%
same,response vs control in vivo at 200 mg/kg,[15],206%
same,response vs control in vivo at 200 mg/kg,[12],213%
"O=c1cnn(CC2CO2)c(=O)n1CC1CO1 (centres unmarked) [Beispiel 20, 2,4-Diglycidyl-2,3,4,5-tetrahydro-1,2,4-triazin-3,5-dion]",response vs control in vivo at 50 mg/kg,[16],189%
same,response vs control in vivo at 100 mg/kg,[17],228%
"O=c1c2c(ncn2CC2CO2)n(CC2CO2)c(=O)n1CC1CO1 (centres unmarked) [Beispiel 23, 1,3,7-Triglycidyl-xanthin]",response vs control in vivo at 50 mg/kg,[13],147%
same,response vs control in vivo at 100 mg/kg,[14],147%
same,response vs control in vivo at 200 mg/kg,"P388, read-out: Verlängerungsrate T/C (Testergebnis in % T/C), 200 mg/kg per single dose, 9 doses, first test series",173%
"O=c1n(CC2CO2)c(=O)n(CC2CO2)n1CC1CO1 (centres unmarked) [Beispiel 26, 1,2,4-Triglycidylurazol]",T/C-Wert,25 mg/kg per single dose,>260
same,T/C-Wert,"6,25 mg/kg per single dose",180
same,T/C-Wert,"12,5 mg/kg per single dose",230
same,response vs control in vivo at 50 mg/kg,[16],298%
"O=c1n(-c2ccccc2)c(=O)n(CC2CO2)n1CC1CO1 (centres unmarked) [Beispiel 27, 1,2-Diglycidyl-4-phenylurazol]",T/C-Wert,25 mg/kg per single dose,120
same,response vs control in vivo at 50 mg/kg,[16],120%
same,response vs control in vivo at 100 mg/kg,[17],150%
same,response vs control in vivo at 200 mg/kg,[18],200%
"O=c1c(Br)cn(CC2CO2)c(=O)n1CC1CO1 (centres unmarked) [Diglycidyl-5-bromuracil, N,N'-Diglycidyl-5-bromuracil]",response vs control in vivo at 50 mg/kg,[16],173%
same,response vs control in vivo at 100 mg/kg,[17],193%
"O=c1c(F)cn(CC2CO2)c(=O)n1CC1CO1 (centres unmarked) [Diglycidyl-5-floururacil, N,N'-Diglycidyl-5-fluoruracil]",response vs control in vivo at 50 mg/kg,[16],179%
same,response vs control in vivo at 100 mg/kg,[17],300%
"O=c1c(I)cn(CC2CO2)c(=O)n1CC1CO1 (centres unmarked) [Diglycidyl-5-joduracil, N,N'-Diglycidyl-5-ioduracil]",response vs control in vivo at 50 mg/kg,[16],124%
same,response vs control in vivo at 100 mg/kg,[17],166%
same,response vs control in vivo at 200 mg/kg,[18],189%
"O=c1n(CC2CO2)c2cc(Cl)c(Cl)cc2n1CC1CO1 (centres unmarked) [R2 -Cl R3 -Cl, N,N-Diglycidyl-5,6-di-chlor-benzimidazolon]",response vs control in vivo at 50 mg/kg,[3],158%
same,response vs control in vivo at 100 mg/kg,[4],120%
"CCCCCC(=O)c1ccc2c(c1)n(CC1CO1)c(=O)n2CC1CO1 (centres unmarked) [R2 -H R3 -C-C5H11 "" O, N,N-Diglycidyl-5-caproyl-benzimidazolon]",response vs control in vivo at 50 mg/kg,[3],167%
same,response vs control in vivo at 100 mg/kg,[4],198%
same,response vs control in vivo at 200 mg/kg,[6],130%
"O=c1n(CC2CO2)c2ccc(Cl)cc2n1CC1CO1 (centres unmarked) [R2 -H R3 -Cl, N,N'-Digylcidyl-5-chlor-benzimidazolon]",Testergebnis in % T/C,25 mg/kg,156%
same,Testergebnis in % T/C,50 mg/kg,181%
same,Testergebnis in % T/C,100 mg/kg,92%
same,Testergebnis in % T/C,"12,5 mg/kg",145%
same,response vs control in vivo at 50 mg/kg,[13],191%
same,response vs control in vivo at 100 mg/kg,[14],234%
"COc1ccc2c(c1)n(CC1CO1)c(=O)n2CC1CO1 (centres unmarked) [R2 -H R3 -O-CH3, N,N-Diglycidyl-5-methoxy-benzimidazolon]",response vs control in vivo at 50 mg/kg,[3],175%
same,response vs control in vivo at 100 mg/kg,[4],225%
"O=C1N(CC2CO2)C(=O)C(c2ccccc2)(c2ccccc2)N1CC1CO1 (centres unmarked) [R5 C6H5-R6 C6H5-, Diglycidyl-diphenylhydantoin]",Testergebnis in % T/C,100 mg/kg,136%
same,Testergebnis in % T/C,200 mg/kg,149%
same,response vs control in vivo at 100 mg/kg,[4],122%
same,response vs control in vivo at 200 mg/kg,[6],130%
"CCC1(c2ccccc2)C(=O)N(CC2CO2)C(=O)N1CC1CO1 (centres unmarked) [R5 CH3-CH2-R6 C6H5-, Diglycidyl-5-phenyl-5-ethylhydantoin]",Testergebnis in % T/C,50 mg/kg,111%
same,Testergebnis in % T/C,100 mg/kg,146%
same,Testergebnis in % T/C,200 mg/kg,188%
same,response vs control in vivo at 50 mg/kg,[3],125%
same,response vs control in vivo at 100 mg/kg,[4],156%
same,response vs control in vivo at 200 mg/kg,[6],222%
"CC1(c2ccccc2)C(=O)N(CC2CO2)C(=O)N1CC1CO1 (centres unmarked) [R5 CH3-R6 C6H5-, Diglycidyl-5-phenyl-5-methyl-hydantoin]",response vs control in vivo at 50 mg/kg,[3],100%
same,response vs control in vivo at 100 mg/kg,[4],160%
same,response vs control in vivo at 200 mg/kg,[6],250%
